Measured values from ChEMBL document CHEMBL4325829, “Design and Synthesis of Tubulin and Histone Deacetylase Inhibitor Based on iso-Combretastatin A-4” (J Med Chem, 2018).
Calls of active or inactive are those of the source. No cut-off for these calls is given here.

How the values were obtained:
[1] = test system: HCT-116; assay: Antiproliferative activity against human HCT116 cells after 72 hrs by MTS assay; format: functional
[2] = Inhibition of sheep brain tubulin polymerization assessed as reduction in rate of microtubule assembly by DAPI-fluorescence based assay; parameters: species or system Ovis aries
[3] = target: T1, Histone deacetylase 8 (Homo sapiens, UniProt Q9BY41); assay: Inhibition of human recombinant HDAC8 after 30 mins using fluorogenic substrate by fluorimetric assay; details: read-out: IC50
T1 sequence (Q9BY41 whole entry): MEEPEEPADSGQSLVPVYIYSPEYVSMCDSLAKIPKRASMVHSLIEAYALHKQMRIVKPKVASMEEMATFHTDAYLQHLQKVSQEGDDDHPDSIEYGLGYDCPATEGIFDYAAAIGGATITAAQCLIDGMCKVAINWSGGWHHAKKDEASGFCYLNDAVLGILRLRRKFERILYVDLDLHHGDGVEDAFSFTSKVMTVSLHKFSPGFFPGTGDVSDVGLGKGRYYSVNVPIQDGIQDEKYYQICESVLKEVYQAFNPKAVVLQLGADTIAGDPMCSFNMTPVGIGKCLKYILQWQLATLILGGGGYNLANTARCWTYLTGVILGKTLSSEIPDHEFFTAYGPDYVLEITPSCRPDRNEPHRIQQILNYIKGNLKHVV

[4] = target: T2, Protein deacetylase HDAC6 (Homo sapiens, UniProt Q9UBN7)
T2 sequence (Q9UBN7 whole entry): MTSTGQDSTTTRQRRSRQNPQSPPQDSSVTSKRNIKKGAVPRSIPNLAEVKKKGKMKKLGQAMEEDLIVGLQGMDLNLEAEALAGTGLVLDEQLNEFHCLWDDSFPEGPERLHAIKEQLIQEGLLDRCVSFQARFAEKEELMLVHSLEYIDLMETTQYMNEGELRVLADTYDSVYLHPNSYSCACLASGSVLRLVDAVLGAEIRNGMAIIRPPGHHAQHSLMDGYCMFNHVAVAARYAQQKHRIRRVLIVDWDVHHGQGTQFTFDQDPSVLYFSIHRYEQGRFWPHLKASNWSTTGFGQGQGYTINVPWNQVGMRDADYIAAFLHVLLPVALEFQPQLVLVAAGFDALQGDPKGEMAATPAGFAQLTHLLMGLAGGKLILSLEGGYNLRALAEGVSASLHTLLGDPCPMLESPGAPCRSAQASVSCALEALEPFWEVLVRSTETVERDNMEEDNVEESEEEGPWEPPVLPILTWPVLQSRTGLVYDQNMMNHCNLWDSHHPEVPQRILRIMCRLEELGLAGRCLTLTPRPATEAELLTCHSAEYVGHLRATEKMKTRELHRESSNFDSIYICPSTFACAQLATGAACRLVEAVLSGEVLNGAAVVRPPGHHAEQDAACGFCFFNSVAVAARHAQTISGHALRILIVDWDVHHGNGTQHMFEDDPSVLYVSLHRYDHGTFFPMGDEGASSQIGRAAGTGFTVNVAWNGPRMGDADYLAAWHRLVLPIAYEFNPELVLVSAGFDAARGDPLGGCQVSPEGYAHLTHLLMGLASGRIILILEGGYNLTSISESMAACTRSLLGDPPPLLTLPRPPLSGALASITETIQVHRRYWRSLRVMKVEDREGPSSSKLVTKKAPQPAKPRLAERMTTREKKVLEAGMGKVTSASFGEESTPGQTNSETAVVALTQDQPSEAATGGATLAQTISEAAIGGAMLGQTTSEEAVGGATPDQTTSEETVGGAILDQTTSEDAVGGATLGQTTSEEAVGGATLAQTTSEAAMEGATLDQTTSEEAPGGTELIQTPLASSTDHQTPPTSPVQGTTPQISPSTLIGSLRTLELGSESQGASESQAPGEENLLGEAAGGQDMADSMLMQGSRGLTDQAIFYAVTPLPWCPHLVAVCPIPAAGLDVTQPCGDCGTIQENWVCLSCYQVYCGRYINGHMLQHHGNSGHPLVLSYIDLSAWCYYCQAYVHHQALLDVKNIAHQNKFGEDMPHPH
Description: Inhibition of human recombinant HDAC6 after 30 mins using fluorogenic substrate by fluorimetric assay

[5] = species on record: Ovis aries; assay: Inhibition of sheep brain tubulin polymerization assessed as reduction in rate of microtubule assembly at 200 uM by DAPI-fluorescence based assay
[6] = test system: A549; assay: Antiproliferative activity against human A549 cells after 72 hrs by MTS assay; format: functional
[7] = test system: K562; assay: Antiproliferative activity against human K562 cells after 72 hrs by MTS assay; format: functional
[8] = test system: K-562R; assay: Antiproliferative activity against human K562R cells after 72 hrs by MTS assay; format: functional
[9] = test system: PC-3; assay: Antiproliferative activity against human PC3 cells after 72 hrs by MTS assay; format: functional
[10] = test system: U-87 MG; assay: Antiproliferative activity against human U87 cells after 72 hrs by MTS assay; format: functional, U-87MG ATCC
[11] = test system: MCF7; assay: Antiproliferative activity against human MCF7 cells after 72 hrs by MTS assay; format: functional
[12] = test system: MIA PaCa-2; assay: Antiproliferative activity against human MIAPaCa2 cells after 72 hrs by MTS assay; format: functional
[13] = test system: BXPC-3; assay: Antiproliferative activity against human BxPC3 cells after 72 hrs by MTS assay; format: functional
[14] = test system: HT-29; assay: Antiproliferative activity against human HT-29 cells after 72 hrs by MTS assay; format: functional
[15] = test system: HT-29; assay: Antiproliferative activity against human HT-29 cells assessed as cell viability after 72 hrs by MTS assay relative to control; format: functional
[16] = test system: HT-29; assay: Antiproliferative activity against human HT-29 cells in presence of isoCA-4 after 72 hrs by MTS assay relative to control; format: functional, cell-based; details: HT-29, 72 h
[17] = target: T3, Histone deacetylase 11 (Homo sapiens, UniProt Q96DB2); assay: Inhibition of human recombinant HDAC11 after 30 mins using fluorogenic substrate by fluorimetric assay; details: read-out: IC50
T3 sequence (Q96DB2 whole entry): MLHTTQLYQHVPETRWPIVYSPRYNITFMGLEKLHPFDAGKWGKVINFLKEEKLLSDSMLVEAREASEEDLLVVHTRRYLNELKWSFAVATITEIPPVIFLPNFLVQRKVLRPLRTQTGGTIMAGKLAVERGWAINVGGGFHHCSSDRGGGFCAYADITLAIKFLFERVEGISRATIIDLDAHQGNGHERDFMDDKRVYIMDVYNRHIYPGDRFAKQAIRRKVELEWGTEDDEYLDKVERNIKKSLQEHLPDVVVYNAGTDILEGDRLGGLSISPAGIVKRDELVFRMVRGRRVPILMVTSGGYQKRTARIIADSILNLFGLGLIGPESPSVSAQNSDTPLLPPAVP

| GI50 ([1]; Homo sapiens, HCT-116, 72 h) [nM] | IC50 [2] [nM] | Structure (SMILES) | also measured |
| --- | --- | --- | --- |
| 36 | 81000 | C=C(c1cc(OC)c(OC)c(OC)c1)c1ccc2c(c1)cc(C(=O)NO)n2C |  |
| 150 | 5000 | C=C(c1ccc(OC)c(OCC(=O)OCC)c1)c1cc(OC)c(OC)c(OC)c1 |  |
| 85 | 4000 | C=C(c1ccc(OC)c(/C=C/C(=O)OC)c1)c1cc(OC)c(OC)c(OC)c1 |  |
| 500 |  | C=C(c1ccc(OC)c(OCCCC(=O)NO)c1)c1cc(OC)c(OC)c(OC)c1 | inhibition [5]: inactive |
| 37.2 | 7500 | C=C(c1cc(OC)c(OC)c(OC)c1)c1ccc(OC)c(/C=C/C(=O)NO)n1 |  |

The remaining lines, values behind:

| Structure (SMILES) | GI50 ([1]; Homo sapiens, HCT-116, 72 h) [nM] | IC50 [2] [nM] | also measured |
| --- | --- | --- | --- |
| C=C(c1cc(OC)c(OC)c(OC)c1)c1ccc(OC)c(C(=O)NO)c1 | 233 | 20000 |  |
| C=C(c1cc(OC)c(OC)c(OC)c1)c1ccc2c(c1)cc(/C=C/C(=O)NO)n2C | 20 | 5400 | IC50 [3]: 6200 nM; IC50 [4]: 3800 nM |
| C=C(c1cc(OC)c(OC)c(OC)c1)c1ccc2c(c1)c(C(=O)NO)cn2C | 30 | 7300 |  |
| CC(/C=C/C(=O)NO)=C\[C@@H](C)C(=O)c1ccc(N(C)C)cc1 [TRICHOSTATIN] |  |  | GI50 [1]: 35 nM; GI50 [6]: 80 nM; GI50 [7]: 262 nM; GI50 [8]: 88 nM; GI50 [9]: 387 nM; GI50 [10]: 1040 nM; GI50 [11]: 45 nM; GI50 [12]: 200 nM; GI50 [13]: 100 nM; GI50 [14]: 34.1 nM; Activity [15]: <20%; IC50 [16]: 3.8 nM |
| C=C(c1cc(OC)c(OC)c(OC)c1)c1ccc2c(c1)c(/C=C/C(=O)NO)cn2C | 14 | 3700 | IC50 [3]: 240 nM; IC50 [17]: 5000 nM; IC50 [4]: 6900 nM |
| C=C(c1ccc(OC)c(C#CCCCC(=O)NO)c1)c1cc(OC)c(OC)c(OC)c1 | 372 | 18000 |  |
